Patent publication US6037447A, “Glycopeptide compounds” (priority 1998, dated 2000)

Legend:
[1] = test system: Staphylococcus aureus SA1199; assay: Standard broth micro-dilution MIC, Staphylococcus aureus SA1199; type: cell-based
Protocol: (§1) The minimal inhibitory concentrations (MICs) were determined using a standard broth micro-dilution assay.

[2] = test system: Staphylococcus aureus 447; assay: Standard broth micro-dilution MIC, Staphylococcus aureus 447; type: cell-based
Protocol: as §1

[3] = test system: Staphylococcus epidermidis 270; assay: Standard broth micro-dilution MIC, Staphylococcus epidermidis 270; type: cell-based
Protocol: as §1

Escherichia coli EC14 = assay: Standard broth micro-dilution MIC, Escherichia coli EC14; type: cell-based
Protocol: as §1

[4] = test system: Staphylococcus aureus S13E; type: cell-based
Protocol: as §1

[5] = test system: vancomycin-resistant enterococci; assay: In Vitro Activity Against Enterococci, vancomycin-resistant strains; type: cell-based; settings: representative vancomycin-resistant enterococci (Enterococcus faecium and Enterococcus faecalis)
Protocol: as §1

[6] = test system: Staphylococcus aureus SA119913; assay: Standard broth micro-dilution MIC, Staphylococcus aureus SA119913; type: cell-based
Protocol: as §1

[7] = test system: Staphylococcus aureus X778; assay: Standard broth micro-dilution MIC, Staphylococcus aureus X778; type: cell-based
Protocol: as §1

[8] = test system: Staphylococcus aureus 491; assay: Standard broth micro-dilution MIC, Staphylococcus aureus 491; type: cell-based
Protocol: as §1

[9] = test system: Staphylococcus aureus SA1199A; assay: Standard broth micro-dilution MIC, Staphylococcus aureus SA1199A; type: cell-based
Protocol: as §1

[10] = test system: Staphylococcus haemolyticus 415; assay: Standard broth micro-dilution MIC, Staphylococcus haemolyticus 415; type: cell-based
Protocol: as §1

[11] = test system: Streptococcus pyogenes C203; assay: Standard broth micro-dilution MIC, Streptococcus pyogenes C203; type: cell-based
Protocol: as §1

[12] = test system: Staphylococcus haemolyticus 105; assay: Standard broth micro-dilution MIC, Staphylococcus haemolyticus 105; type: cell-based
Protocol: as §1

[13] = test system: vancomycin-sensitive enterococci; assay: In Vitro Activity Against Enterococci, vancomycin-sensitive strains; type: cell-based, Enterococcus faecium and Enterococcus faecalis; settings: representative vancomycin-sensitive enterococci (Enterococcus faecium and Enterococcus faecalis)
Protocol: as §1

[14] = test system: Staphylococcus aureus X400; assay: Standard broth micro-dilution MIC, Staphylococcus aureus X400; type: cell-based
Protocol: as §1

[15] = test system: Staphylococcus aureus 446; assay: Standard broth micro-dilution MIC, Staphylococcus aureus 446; type: cell-based
Protocol: as §1

[16] = test system: Haemophilus influenzae RD; assay: Standard broth micro-dilution MIC, Haemophilus influenzae RD; type: cell-based
Protocol: as §1

[17] = test system: Enterococcus faecalis 276; assay: Standard broth micro-dilution MIC, Enterococcus faecalis 276; type: cell-based
Protocol: as §1

[18] = test system: Staphylococcus aureus 489; assay: Standard broth micro-dilution MIC, Staphylococcus aureus 489; type: cell-based
Protocol: as §1

Enterococcus faecium 180 = assay: Standard broth micro-dilution MIC, Enterococcus faecium 180; type: cell-based
Protocol: as §1

[19] = test system: Streptococcus pneumoniae P1; assay: Standard broth micro-dilution MIC, Streptococcus pneumoniae P1; type: cell-based
Protocol: as §1

[20] = test system: Enterococcus faecalis 2041; assay: Standard broth micro-dilution MIC, Enterococcus faecalis 2041; type: cell-based
Protocol: as §1

[21] = test system: Enterococcus faecium 180-1; assay: Standard broth micro-dilution MIC, Enterococcus faecium 180-1; type: cell-based
Protocol: as §1

[22] = test system: Enterococcus gallinarum 245; assay: Standard broth micro-dilution MIC, Enterococcus gallinarum 245; type: cell-based
Protocol: as §1

| Substance | MIC [1] | MIC [2] | MIC [3] | MIC [4] | mean geometric MIC, Vancomycin Resistant Strains [5] | MIC [6] | MIC [7] | MIC [8] | MIC [9] | MIC [10] | MIC [11] | MIC [12] | mean geometric MIC, Vancomycin Sensitive Strains [13] | MIC [14] | MIC [15] | MIC [17] | MIC (Enterococcus faecium 180) | MIC [19] | MIC [20] | MIC [22] | also measured |
| --- | --- | --- | --- | --- | --- | --- | --- | --- | --- | --- | --- | --- | --- | --- | --- | --- | --- | --- | --- | --- | --- |
| 1,3-propanediyl-bis-[(oxy-4,1-phenylene)-methylene]-bis-[A82846B] [Compound 14] | 4 µg/mL | 16 µg/mL | 8 µg/mL | 2 µg/mL | > 64 µg/mL | 2 µg/mL | 1 µg/mL | 0.25 µg/mL | 0.125 µg/mL | 16 µg/mL | 0.06 µg/mL | 4 µg/mL | 1.0 µg/mL | 2 µg/mL | 4 µg/mL | 0.5 µg/mL | 0.25 µg/mL | 0.06 µg/mL | 0.25 µg/mL | 0.06 µg/mL | MIC (Escherichia coli EC14): > 64 µg/mL; MIC [16]: > 64 µg/mL; MIC [18]: 1 µg/mL; MIC [21]: ≤ 0.06 µg/mL |
| 5-n-pentyl-1,3-phenylene-bis[(oxy-1,3-n-propyleneoxy-4,1-phenylene)methylene]-bis-[vancomycin] [Compound 61] | 8 µg/mL | 16 µg/mL | 4 µg/mL | 16 µg/mL | 2 µg/mL | 16 µg/mL | 4 µg/mL | 2 µg/mL | 1 µg/mL | 8 µg/mL | 1 µg/mL | 1 µg/mL | 1.2 µg/mL | 8 µg/mL | 8 µg/mL | 2 µg/mL | 1 µg/mL | 2 µg/mL | 2 µg/mL | 1 µg/mL | MIC [18]: 4 µg/mL; MIC [21]: 0.5 µg/mL |
| N^4 -(4-(2-(2-(2-(p-formyl-phenoxy)ethoxy)ethoxy)ethoxy)benzyl)A82846B [Compound 43] | 2 µg/mL | 4 µg/mL | 4 µg/mL | 2 µg/mL | > 128 µg/mL | 4 µg/mL | 2 µg/mL | 0.5 µg/mL | 0.5 µg/mL | 8 µg/mL | 0.06 µg/mL | 1 µg/mL | 4.6 µg/mL | 2 µg/mL | 2 µg/mL | 1 µg/mL | 8 µg/mL | 0.06 µg/mL | 1 µg/mL | 0.5 µg/mL | MIC (Escherichia coli EC14): > 64 µg/mL; MIC [16]: > 64 µg/mL; MIC [18]: 1 µg/mL; MIC [21]: 0.5 µg/mL |
| N^4 -(4-(2-(4-(2-(p-formyl-phenoxy)ethoxycarbonyl)benzoyl-oxy)ethoxy)benzyl)vancomycin [Compound 44] | ≤ 0.06 µg/mL | 0.125 µg/mL | 0.25 µg/mL | ≤ 0.06 µg/mL | 76 µg/mL | ≤ 0.06 µg/mL | ≤ 0.06 µg/mL | ≤ 0.06 µg/mL | ≤ 0.06 µg/mL | 2 µg/mL | 0.06 µg/mL | 0.25 µg/mL | 0.66 µg/mL | ≤ 0.06 µg/mL | 0.125 µg/mL | ≤ 0.06 µg/mL | 4 µg/mL | 0.06 µg/mL | ≤ 0.06 µg/mL | 0.25 µg/mL | MIC (Escherichia coli EC14): > 64 µg/mL; MIC [16]: > 64 µg/mL; MIC [18]: 0.125 µg/mL; MIC [21]: ≤ 0.06 µg/mL |
| N^4 -(4-(3-(3-(3-(p-formylphenoxy)-n-propoxy)-5-phenylphenoxy)-n-propoxy)benzyl)vancomycin [Compound 45] | 0.5 µg/mL | 1 µg/mL | 1 µg/mL | 0.5 µg/mL | 2.8 µg/mL | 0.5 µg/mL | 0.5 µg/mL | 0.5 µg/mL | ≤ 0.06 µg/mL | 2 µg/mL | 0.06 µg/mL | 0.5 µg/mL | 0.33 µg/mL | 0.5 µg/mL | 1 µg/mL | 0.25 µg/mL | 0.5 µg/mL | 0.06 µg/mL | 0.125 µg/mL | 0.5 µg/mL | MIC (Escherichia coli EC14): > 64 µg/mL; MIC [18]: 2 µg/mL |
| N^4 -(4-(3-(p-formylphenoxy)-n-propyloxy)benzyl)A82846B [Compound 46] | 1 µg/mL | 2 µg/mL | 2 µg/mL | 0.5 µg/mL | 4.8 µg/mL | 1 µg/mL | 0.5 µg/mL | 0.5 µg/mL | 0.125 µg/mL | 4 µg/mL | ≤ 0.06 µg/mL | 2 µg/mL | 0.17 µg/mL | 1 µg/mL | 1 µg/mL | 1 µg/mL | 0.5 µg/mL | ≤ 0.06 µg/mL | ≤ 0.06 µg/mL | 4 µg/mL | MIC (Escherichia coli EC14): > 64 µg/mL; MIC [18]: 0.5 µg/mL; MIC [21]: ≤ 0.06 µg/mL |
| N^4 -(4-(3-(p-formylphenoxy)-n-propyloxy)benzyl)vancomycin [Compound 34] | ≤ 0.06 µg/mL | ≤ 0.06 µg/mL | 0.25 µg/mL | ≤ 0.06 µg/mL | 53 µg/mL | ≤ 0.06 µg/mL | ≤ 0.06 µg/mL | ≤ 0.06 µg/mL | ≤ 0.06 µg/mL | 2 µg/mL | 0.06 µg/mL | 0.5 µg/mL | 0.87 µg/mL | ≤ 0.06 µg/mL | ≤ 0.06 µg/mL | ≤ 0.06 µg/mL | 0.5 µg/mL | 0.06 µg/mL | ≤ 0.06 µg/mL | 1 µg/mL | MIC [18]: ≤ 0.06 µg/mL; MIC [21]: ≤ 0.06 µg/mL |
| N^4 -(4-(8-(p-formylphenoxy)-n-octyloxy)benzyl)vancomycin [Compound 40] | 0.25 µg/mL | 0.25 µg/mL | 0.25 µg/mL | 0.25 µg/mL | 11.3 µg/mL | 1 µg/mL | ≤ 0.06 µg/mL | ≤ 0.06 µg/mL | ≤ 0.06 µg/mL | 4 µg/mL | 0.06 µg/mL | 1 µg/mL | 0.19 µg/mL |  | 0.5 µg/mL | 0.25 µg/mL | 1 µg/mL | 0.06 µg/mL | 0.125 µg/mL | 1 µg/mL | MIC (Escherichia coli EC14): > 64 µg/mL; MIC [21]: ≤ 0.06 µg/mL |
| N^4 -(4-(12-(p-formylphenoxy)-n-dodecyloxy)benzyl)vancomycin [Compound 42] | 2 µg/mL | 4 µg/mL | 4 µg/mL | 4 µg/mL | 4.5 µg/mL | 4 µg/mL | 1 µg/mL | 2 µg/mL | 1 µg/mL | 8 µg/mL | 0.25 µg/mL | 2 µg/mL | 1.1 µg/mL | 2 µg/mL | 2 µg/mL | 4 µg/mL | 0.5 µg/mL | 1 µg/mL | 2 µg/mL | 1 µg/mL | MIC (Escherichia coli EC14): > 64 µg/mL; MIC [18]: 2 µg/mL; MIC [21]: 1 µg/mL |
